Measurements reported in patent US4440934A, “5-(4-Hydroxyphenyl) hydantoin derivatives” (Pacific Chemical Ind. Co., Ltd., priority 1981, dated 1984).
Converted amounts (≈) assume the structure as drawn.

Experiments:
Format in all cases: cell-based
[1] = test system: molds and yeast; assay: fungistatic activity, summary over molds and yeast; conditions: from table 2
Procedure: (§1) In order to assay the effectiveness of the compounds of the present invention, the MIC(minimum inhibitory concentration) on bacteria, yeast and fungi were determined.
(§2) For the evaluation of fungistatic activity, each compound was serially diluted in test tubes to give the desired concentration when mixed with 20 ml of steriled molten sabouraud dextrose agar, and poured into sterile petri dishes.
(§3) After the medium was solidified, the spore-suspension of the each test organisms were inoculated by streaking and incubated at 25 C. for 7 days.
(§4) The minimum concentration of the compound effective for inhibiting the growth is determined by examining the growth of the each organism.
(§5) In the above mentioned method the MIC for yeast and molds of the compounds A,B,C,D and E were obtained and can be seen from the table 2.

[2] = test system: Candida albicans; assay: MIC for yeast (sabouraud dextrose agar); conditions: 168 h, 25 C., 7 days, read-out: MIC for molds and yeast
Procedure: as §1, §2, §3, §4, §5

[3] = test system: bacteria; assay: MIC against bacteria, summary over the test bacteria; conditions: for MIC: 48 h, four bacteria of table 1, read-out: MIC value (range over the test bacteria)
Procedure: as §1
(§6) Minimum inhibitory concentrations were determined according to following procedure.
(§7) For the bacteriostatic activity, the said invention compounds were serially diluted with 10 ml of sterile nutrient broth. Each tube was inoculated with 1 drop of an aqueous suspension of the various test organisms containing approximately 1×10^6 organisms/ml and incubated at 37 C. for 48 hrs. After incubation, the IMC of the said invention compounds were determined as the lowest concentration of compound in which no microscopic evidence of growth was observed. The compounds and the MIC value against bacteria of the compounds can be seen from the following table 1.

[4] = test system: micro-organisms, including bacteria, yeast and molds; assay: antimicrobial activity, bacteria, yeast and molds; conditions: comparison of table 2 with table 1
Procedure: as §1, §6, §7, §2, §3, §4

[5] = test system: Pseudomonas aeruginosa; assay: MIC against bacteria (serial dilution in nutrient broth); conditions: 37 C., 48 hrs
Procedure: as §1, §6, §7

[6] = test system: Escherichia coli; assay: as above; conditions: 37 C., 48 hrs
Procedure: as §1, §6, §7

[7] = test system: Staphylococcus aureus; assay: as above; conditions: 37 C., 48 hrs
Procedure: as §1, §6, §7

[8] = test system: Bacillus subtilis; assay: as above; conditions: 37 C., 48 hrs
Procedure: as §1, §6, §7

[9] = test system: Aspergillus flavus; assay: MIC for molds (sabouraud dextrose agar); conditions: 168 h, 25 C., 7 days, read-out: MIC for molds and yeast
Procedure: as §1, §2, §3, §4, §5

[10] = test system: Aspergillus niger; assay: MIC for molds (sabouraud dextrose agar); conditions: 168 h, 25 C., 7 days, read-out: MIC for molds and yeast
Procedure: as §1, §2, §3, §4, §5

[11] = test system: Tricoderma virid; assay: MIC for molds (sabouraud dextrose agar); conditions: 168 h, 25 C., 7 days, read-out: MIC for molds and yeast
Procedure: as §1, §2, §3, §4, §5

[12] = test system: Fusarium solani; assay: MIC for molds (sabouraud dextrose agar); conditions: 168 h, 25 C., 7 days, read-out: MIC for molds and yeast
Procedure: as §1, §2, §3, §4, §5

| SMILES | fungistatic activity compared with the compounds C and D [1] | MIC [2] [µg/mL] | MIC [3] [µg/mL] | activity against bacteria compared with fungi and yeast [4] | MIC [5] [µg/mL] | MIC [6] [µg/mL] | MIC [7] [µg/mL] | MIC [8] [µg/mL] | MIC [9] [µg/mL] | MIC [10] [µg/mL] | MIC [11] [µg/mL] | MIC [12] [µg/mL] | strength relative to compound C and D (times as strong) ([3]; from MIC values of table 1) |
| --- | --- | --- | --- | --- | --- | --- | --- | --- | --- | --- | --- | --- | --- |
| O=C1C(c2ccc(O)cc2)N(CO)C(=O)N1CO (centres unmarked) [B, 5-(4-hydroxyphenyl)-1,3-bis (hydroxymethyl)hydantoin] | stronger fungistatic activities than the compounds C and D | 2000 (≈ 7.93 mM) | 100 to 200 (≈ 0.396 to 0.793 mM) | by far stronger activities against bacteria than fungi and yeast | 100 (≈ 0.396 mM) | 100 (≈ 0.396 mM) | 100 (≈ 0.396 mM) | 200 (≈ 0.793 mM) | 2000 (≈ 7.93 mM) | 1000 (≈ 3.96 mM) | 1000 (≈ 3.96 mM) | 1000 (≈ 3.96 mM) |  |
| O=C1NC(c2ccc(O)c(Cl)c2)C(=O)N1CO (centres unmarked) [E, 5-(3-Chloro-4-hydroxyphenyl)-3-hydroxymethylhydantoin] | stronger fungistatic activities than the compounds C and D | 2000 (≈ 7.79 mM) | 100 to 500 (≈ 0.39 to 1.95 mM) | by far stronger activities against bacteria than fungi and yeast | 100 (≈ 0.39 mM) | 100 (≈ 0.39 mM) | 100 (≈ 0.39 mM) | 500 (≈ 1.95 mM) | 2000 (≈ 7.79 mM) | 2000 (≈ 7.79 mM) | 1000 (≈ 3.9 mM) | 1000 (≈ 3.9 mM) |  |
| O=C1NC(c2ccc(O)cc2)C(=O)N1CO (centres unmarked) [A, 5-(4-hydroxyphenyl)-3-hydroxymethylhydantoin] | stronger fungistatic activities than the compounds C and D | 4000 (≈ 18 mM) | 100 to 300 (≈ 0.45 to 1.35 mM) | by far stronger activities against bacteria than fungi and yeast | 200 (≈ 0.9 mM) | 100 (≈ 0.45 mM) | 200 (≈ 0.9 mM) | 300 (≈ 1.35 mM) | 3000 (≈ 13.5 mM) | 2000 (≈ 9 mM) | 1000 (≈ 4.5 mM) | 1500 (≈ 6.75 mM) | about 10 times |
| CC(O)N1C(=O)C(c2ccc(O)cc2)N(C(C)O)C1=O (centres unmarked) [C, 5-(4-hydroxyphenyl)-1,3-bis (1-hydroxyethyl)hydantoin] |  | 5000 (≈ 17.8 mM) | 700 to 1500 (≈ 2.5 to 5.35 mM) | by far stronger activities against bacteria than fungi and yeast | 1200 (≈ 4.28 mM) | 700 (≈ 2.5 mM) | 700 (≈ 2.5 mM) | 1000 (≈ 3.57 mM) | 5000 (≈ 17.8 mM) | 4000 (≈ 14.3 mM) | 3000 (≈ 10.7 mM) | 3000 (≈ 10.7 mM) |  |
| CCC(O)N1C(=O)C(c2ccc(O)cc2)N(C(O)CC)C1=O (centres unmarked) [D, 5-(4-hydroxyphenyl)-1,3-bis (1-hydroxypropyl)hydantoin] |  | 5000 (≈ 16.2 mM) | 700 to 1500 (≈ 2.27 to 4.86 mM) | by far stronger activities against bacteria than fungi and yeast | 1500 (≈ 4.86 mM) | 900 (≈ 2.92 mM) | 1000 (≈ 3.24 mM) | 1200 (≈ 3.89 mM) | 5000 (≈ 16.2 mM) | 3000 (≈ 9.73 mM) | 2000 (≈ 6.49 mM) | 3000 (≈ 9.73 mM) |  |
